The values that follow come from patent publication US20110052623A1, “DRIED MICROBIAL CELLS OR MICROORGANISM EXTRACT CONTAINING STABILIZED (SS)-S-ADENOSYL-L-METHIONINE AND METHOD FOR PRODUCTION OF THE DRIED MICROORGANISM CELL OR MICROORGANISM EXTRACT” (KANEKA CORPORATION, priority 2007, published 2011).

Counter-ions that a name gives are not always drawn.

The nature of one data set: Stabilizing agent: dried yeast cells containing SAM with added compound preserved at 25° C. for 7 days.
Conditions: not given
Type of data set: physicochemical. The procedure: The yeast cells obtained in the Reference Example were suspended in deionized water in one-sixth (⅙) of the amount of the culture solution. Each of the compounds listed in table 3 (30% by weight in terms of dry weight) was separately added to the resultant, followed by freezing at −80° C. and lyophilization. Thus, dried yeast cells containing SAM were obtained.
`O.O.O.O.O.O.O.O=S(=O)([O-])[O-].[Fe+2]` [Ferrous sulfate heptahydrate] came in with an SAM residual rate of 90.4%.

The molecule `[Ca+2].[Cl-].[Cl-]` [Calcium chloride] showed an SAM residual rate of 93.7%.

For the molecule `O=S(=O)([O-])[O-].[Zn+2]` [Zinc sulfate], the SAM residual rate was found to be 94.3%.

`N.O=P(O)(O)O` [Ammonium dihydrogen phosphate] yielded an SAM residual rate of 93.6%.

The molecule `O=S(=O)([O-])[O-].[Cu+2]` [Copper sulfate] showed an SAM residual rate of 94.2%.

Regarding `O=S(=O)([O-])[O-].[Mg+2]` [Magnesium sulfate], the SAM residual rate is given as 101.6%.

Staying with this data set, now noted: compound added at 30% by weight to dried yeast cells; 25° C., 7 days.
`OC[C@@H](O)[C@@H](O[C@@H]1O[C@H](CO)[C@H](O)[C@H](O)[C@H]1O)[C@H](O)[C@@H](O)CO` [Lactitol] gave an SAM residual rate of 91.3%.

Turning to `O=C(O)c1cccnc1` [Nicotinic acid], the SAM residual rate worked out at 102.3%.

In the case of Glycogen, the SAM residual rate is listed as 94.6%.

Isomalto-oligosaccharide had an SAM residual rate of 84.9%.

As for `OC[C@@H](O)[C@@H](O)[C@H](O)[C@@H](O)CO` [Sorbitol], the SAM residual rate was 98.2%.

`O=C(CO)[C@@H](O)[C@H](O)[C@@H](O)CO` [L-sorbose] registered an SAM residual rate of 88.4%.

As for `CC(C)[C@H](N)C(=O)O` [L-valine], the SAM residual rate worked out at 89.7%.

On to Cellulose, for which the SAM residual rate was 92.0%.

`NC(=O)c1cccnc1` [Nicotinic-acid amide]: the SAM residual rate is recorded as 97.3%.

Molecule `C[C@H](N)C(=O)O` [L-alanine] showed an SAM residual rate of 86.9%.

In turn, `Cl.N` [Ammonium chloride] gave an SAM residual rate of 95.6%.

Molecule `N.N.O=S(=O)(O)O` [Ammonium sulfate] yielded an SAM residual rate of 87.5%.

Take `O=P(O)(O)O` [Phosphoric acid]: the SAM residual rate worked out at 89.3%.

Consider Inulin, for which the SAM residual rate worked out at 93.1%.

With `CSCC[C@H](N)C(=O)O` [L-methionine], the SAM residual rate was 100.9%.

`OC[C@H]1O[C@@H](O[C@H]2[C@H](O)[C@@H](O)[C@H](O)O[C@@H]2CO)[C@H](O)[C@@H](O)[C@@H]1O` [D-cellobiose] displayed an SAM residual rate of 93.1%.

`Cc1ncc(C[n+]2csc(CCO)c2C)c(N)n1` [thiamine hydrochloride] yielded an SAM residual rate of 99.5%.

`CC(C)C[C@@H](N)C(=O)O` [D-leucine]: the SAM residual rate was 91.9%.

The molecule `NCC(=O)O` [Glycine] displayed an SAM residual rate of 97.5%.

`O=S(=O)([O-])[O-].[Mn+2]` [Manganese sulfate] showed an SAM residual rate of 95.0%.

Take `OC[C@@H](O)[C@@H](O)[C@H](O)[C@H](O)CO` [Mannitol]: the SAM residual rate worked out at 86.8%.

`O=C(O)CC(O)(CC(=O)O)C(=O)O` [Citric acid]: the SAM residual rate is on record as 96.6%.

Molecule `OC[C@@H](O)[C@H](O)[C@H](O)[C@@H](O)CO` [Galactitol] gave an SAM residual rate of 90.7%.

For the molecule `O=C1O[C@H]([C@@H](O)CO)C(O)=C1O` [L-ascorbic acid], the SAM residual rate came to 90.0%.

In turn, `NC(=O)CC[C@H](N)C(=O)O` [L-glutamine] had an SAM residual rate of 94.5%.

As for Fructo-oligosaccharide, the SAM residual rate was 85.9%.

For the molecule `O=C([O-])[C@H](O)[C@@H](O)[C@H](O)[C@H](O)CO.[Na+]` [Sodium gluconate], the SAM residual rate worked out at 89.1%.

`O=C(O)[C@H](O)[C@@H](O)C(=O)O` [L-tartaric acid]: the SAM residual rate was 88.1%.

Molecule `CCC(N)C(=O)O` (racemic) [DL-α-amino-n-butyrate] returned an SAM residual rate of 96.8%.

Consider `O=C[C@H](O)[C@@H](O)[C@@H](O)[C@H](O)CO` [Galactose], for which the SAM residual rate is on record as 99.7%.

The molecule `O=C(O)CC(O)C(=O)O` (racemic) [DL-malic acid] showed an SAM residual rate of 99.1%.

Molecule `O=C1O[C@H](CO)[C@@H](O)[C@H](O)[C@H]1O` [Glucono-δ-lactone] registered an SAM residual rate of 100.7%.

The molecule `CC(=O)N[C@H]1C(O)O[C@H](CO)[C@@H](O)[C@@H]1O` (stereo partly drawn) [N-acetylglucosamine] had an SAM residual rate of 97.6%.

Molecule `O[C@H]1[C@H](O)[C@@H](O)[C@H](O)[C@@H](O)[C@H]1O` [Inositol] gave an SAM residual rate of 96.2%.

As to `C[C@@H](O)[C@H](N)C(=O)O` [L-threonine], the SAM residual rate is reported as 92.0%.

`OC[C@@H](O)[C@H](O)[C@H](O)[C@@H](O)CO` [Dulcitol] yielded an SAM residual rate of 92.2%.

As to Ferric chloride hexahydrate, the SAM residual rate was 95.7%.

`OC[C@H]1O[C@@](CO)(O[C@H]2O[C@H](CO)[C@@H](O)[C@H](O)[C@H]2O)[C@@H](O)[C@@H]1O` [Sucrose]: the SAM residual rate is 93.8%.

A further data set in a line: Bioabsorbability of dried yeast cells containing (SS)-SAM, oral administration (Example 4). Type of data set: in vivo. Particulars: SD rats, 20 g/L SAM at 5 ml/kg b.w., AUC at 8 hours after administration, dried yeast cells of Example 1. The procedure: The resultant was orally administered to rats in the same manner such that comparative control examples were obtained. Before administration and 1, 2, 3, 5, or 8 hours after administration, blood was collected from the jugular vein without any anesthesia and with the use of heparin as an anticoagulant. The plasma components were collected via centrifugation. A 0.4 g/L trichloroacetic acid aqueous solution (40 μL) was added to the obtained plasma (200 μL), followed by mixing and centrifugation. The SAM concentration in the obtained supernatant was analyzed by HPLC. FIG. 1 and table 4 show the results.
`C[S+](CC[C@H](N)C(=O)[O-])C[C@H]1O[C@@H](n2cnc3c(N)ncnc32)[C@H](O)[C@@H]1O.Cc1ccc(S(=O)(=O)O)cc1.O=S(=O)(O)O.O=S(=O)(O)O` (stereo partly drawn) [SAM/p-toluenesulfonic acid/sulfate]: the “Area under SAM concentration curve (AUC)” value was 3200 ng·h/mL.

The data set is the same for the next values; noted with them: SD rats, 20 g/L SAM at 5 ml/kg b.w., dried yeast cells of Example 1 (lyophilized).
In the case of `C[S+](CC[C@H](N)C(=O)[O-])C[C@H]1O[C@@H](n2cnc3c(N)ncnc32)[C@H](O)[C@@H]1O.Cc1ccc(S(=O)(=O)O)cc1.O=S(=O)(O)O.O=S(=O)(O)O` (stereo partly drawn) [SAM/p-toluenesulfonic acid/sulfate], the “Maximum SAM concentration in plasma” value came out at 0.771 µg/mL.

Another data set can be described thus: Bioabsorbability of spray-dried yeast cells containing (SS)-SAM, oral administration (Example 5). In kind it is in vivo. To be noted: SD rats, 20 g/L SAM at 5 ml/kg b.w., AUC at 8 hours after administration, dried yeast cells of Example 5. On the procedure: The obtained dried yeast cells were matured in the presence of silica gel at 40° C. for 7 days. Thus, dried yeast cells containing (SS)-SAM were obtained. The obtained dried yeast cells containing (SS)-SAM were suspended in distilled water to result in an SAM concentration of 20 g/L. The resultant was orally administered to SD rats (male, 17 weeks old) at a dose of 5 ml/kg b.w. […] The resultant was orally administered to rats in the same manner such that comparative control examples were obtained. Before administration and 1, 2, 3, 5, or 8 hours after administration, blood collection was carried out from the jugular vein without any anesthesia and with the use of heparin as an anticoagulant. The plasma components were collected via centrifugation. A 0.4 g/L trichloroacetic acid aqueous solution (40 μL) was added to the obtained plasma (200 μl), followed by mixing and centrifugation. The SAM concentration in the obtained supernatant was analyzed by HPLC.
As to `C[S+](CC[C@H](N)C(=O)[O-])C[C@H]1O[C@@H](n2cnc3c(N)ncnc32)[C@H](O)[C@@H]1O.Cc1ccc(S(=O)(=O)O)cc1.O=S(=O)(O)O.O=S(=O)(O)O` (stereo partly drawn) [SAM/p-toluenesulfonic acid/sulfate], the “Area under SAM concentration curve (AUC)” value is 3200 ng·h/mL.

Staying with this data set, now noted: SD rats, 20 g/L SAM at 5 ml/kg b.w., dried yeast cells of Example 5 (spray dried).
As to `C[S+](CC[C@H](N)C(=O)[O-])C[C@H]1O[C@@H](n2cnc3c(N)ncnc32)[C@H](O)[C@@H]1O.Cc1ccc(S(=O)(=O)O)cc1.O=S(=O)(O)O.O=S(=O)(O)O` (stereo partly drawn) [SAM/p-toluenesulfonic acid/sulfate], the “Maximum SAM concentration in plasma” value turned out to be 0.771 µg/mL.
